Measured values taken from patent EP0908457B1, “3-(1,2-benzisothiazol- and isoxazol-5-Y1)-2,4(1H,3H)-pyrimidinedione or thione and 3-(1,2-benzisothiazol- and isoxazol-5-y1)-4(3H)-pyrimidinone or thione herbicidal agents” (BASF AKTIENGESELLSCHAFT, priority 1997, dated 1999).

Key:
Type in all cases: in vivo
[1] = test system: Sagittaria pygmaea, L.; test: Preemergence weed control under flooded paddy conditions, SAGPY (Arrowhead (Pygmaea)); settings: flooded paddy; for SAGPY: preemergence weeds, herbicidal effect rating 0-9, three to four weeks after treatment; for SAGPY herbicidal rating: preemergence, rated three to four weeks after treatment
[2] = test system: Echinochloa oryzoides (Ard.) Fritsch.; test: Preemergence weed control under flooded paddy conditions, ECHORC (Watergrass (Calif.)); settings: flooded paddy; for ECHORC: preemergence weeds, herbicidal effect rating 0-9, three to four weeks after treatment; for ECHORC herbicidal rating: preemergence, rated three to four weeks after treatment
[3] = test system: Cyperus iria; test: Preemergence weed control under flooded paddy conditions, CYPIR (Rice Flatsedge); settings: flooded paddy; for CYPIR: preemergence weeds, herbicidal effect rating 0-9, three to four weeks after treatment; for CYPIR herbicidal rating: preemergence, rated three to four weeks after treatment
[4] = test system: Cyperus serotinus, Rottb.; test: Preemergence weed control under flooded paddy conditions, CYPSE (Flatsedge); settings: for CYPSE: preemergence weeds, herbicidal effect rating 0-9, three to four weeks after treatment; for CYPSE herbicidal rating: preemergence, rated three to four weeks after treatment
[5] = test system: Monochoria vaginalis, Presl.; test: Preemergence weed control under flooded paddy conditions, MOOVA (Monochoria); settings: flooded paddy; for MOOVA: preemergence weeds, herbicidal effect rating 0-9, three to four weeks after treatment; for MOOVA herbicidal rating: preemergence, rated three to four weeks after treatment

Cn1c(C(F)(F)F)cc(=O)n(-c2ccc3snc(COC(=O)Cc4ccc(Cl)cc4)c3c2)c1=O [Example 452, 2,4(1H,3H)-Pyrimidinedione, 3-[3-(hydroxymethyl)-1,2-benzisothiazol-5-yl]-1-methyl-6-(trifluoromethyl)-, (p-chlorophenyl)acetate (ester)]
SAGPY ([1]; 0.0320 kg/ha): 0.0
SAGPY ([1]; 0.0620 kg/ha): 0.0
SAGPY ([1]; 0.1250 kg/ha): 0.0
SAGPY ([1]; 0.2500 kg/ha): 2.0
ECHORC ([2]; 0.0320 kg/ha): 0.0
ECHORC ([2]; 0.0620 kg/ha): 3.0
ECHORC ([2]; 0.1250 kg/ha): 3.0
ECHORC ([2]; 0.2500 kg/ha): 7.0
CYPIR ([3]; 0.0320 kg/ha): 4.0
CYPIR ([3]; 0.0620 kg/ha): 6.0
CYPIR ([3]; 0.1250 kg/ha): 9.0
CYPIR ([3]; 0.2500 kg/ha): 9.0
CYPSE ([4]; 0.0320 kg/ha): 0.0
CYPSE ([4]; 0.2500 kg/ha): 7.0
MOOVA ([5]; 0.0320 kg/ha): 9.0
MOOVA ([5]; 0.0620 kg/ha): 9.0
MOOVA ([5]; 0.1250 kg/ha): 9.0
MOOVA ([5]; 0.2500 kg/ha): 9.0

Cn1c(C(F)(F)F)cc(=O)n(-c2ccc3snc(COC(=O)c4ccco4)c3c2)c1=O [Example 497, 2,4(1H,3H)-Pyrimidinedione, 3-[3-(hydroxymethyl)-1,2-benzisothiazol-5-yl]-1-methyl-6-(trifluoromethyl)-, 2-furoate (ester)]
SAGPY herbicidal rating ([1]; 0.0320 kg/ha): 0.0
SAGPY herbicidal rating ([1]; 0.0620 kg/ha): 0.0
SAGPY herbicidal rating ([1]; 0.1250 kg/ha): 2.0
SAGPY herbicidal rating ([1]; 0.2500 kg/ha): 6.0
ECHORC herbicidal rating ([2]; 0.0320 kg/ha): 0.0
ECHORC herbicidal rating ([2]; 0.0620 kg/ha): 0.0
ECHORC herbicidal rating ([2]; 0.1250 kg/ha): 4.0
ECHORC herbicidal rating ([2]; 0.2500 kg/ha): 7.0
CYPIR herbicidal rating ([3]; 0.0320 kg/ha): 5.0
CYPIR herbicidal rating ([3]; 0.0620 kg/ha): 6.0
CYPIR herbicidal rating ([3]; 0.1250 kg/ha): 9.0
CYPIR herbicidal rating ([3]; 0.2500 kg/ha): 9.0
CYPSE herbicidal rating ([4]; 0.1250 kg/ha): 6.0
CYPSE herbicidal rating ([4]; 0.2500 kg/ha): 9.0
MOOVA herbicidal rating ([5]; 0.0320 kg/ha): 6.0
MOOVA herbicidal rating ([5]; 0.0620 kg/ha): 7.0
MOOVA herbicidal rating ([5]; 0.1250 kg/ha): 9.0
MOOVA herbicidal rating ([5]; 0.2500 kg/ha): 9.0

CCC(C(=O)OCc1nsc2ccc(-n3c(=O)cc(C(F)(F)F)n(C)c3=O)cc12)c1ccccc1 (stereo not shown) [Example 473, 2,4(1H,3H)-Pyrimidinedione, 3-[3-(hydroxymethyl)-1,2-benzisothiazol-5-yl]-1-methyl-6-(trifluoromethyl)-, 2-phenylbutyrate (ester)]
SAGPY herbicidal rating ([1]; 0.0320 kg/ha): 0.0
SAGPY herbicidal rating ([1]; 0.0620 kg/ha): 0.0
SAGPY herbicidal rating ([1]; 0.1250 kg/ha): 2.0
SAGPY herbicidal rating ([1]; 0.2500 kg/ha): 3.0
ECHORC herbicidal rating ([2]; 0.0320 kg/ha): 1.0
ECHORC herbicidal rating ([2]; 0.0620 kg/ha): 2.0
ECHORC herbicidal rating ([2]; 0.1250 kg/ha): 2.0
ECHORC herbicidal rating ([2]; 0.2500 kg/ha): 4.0
CYPIR herbicidal rating ([3]; 0.0320 kg/ha): 2.0
CYPIR herbicidal rating ([3]; 0.0620 kg/ha): 4.0
CYPIR herbicidal rating ([3]; 0.1250 kg/ha): 6.0
CYPIR herbicidal rating ([3]; 0.2500 kg/ha): 8.0
CYPSE herbicidal rating ([4]; 0.0320 kg/ha): 0.0
CYPSE herbicidal rating ([4]; 0.0620 kg/ha): 0.0
CYPSE herbicidal rating ([4]; 0.2500 kg/ha): 5.0
MOOVA herbicidal rating ([5]; 0.0320 kg/ha): 4.0
MOOVA herbicidal rating ([5]; 0.0620 kg/ha): 6.0
MOOVA herbicidal rating ([5]; 0.1250 kg/ha): 7.0
MOOVA herbicidal rating ([5]; 0.2500 kg/ha): 7.0

Cn1c(C(F)(F)F)cc(=O)n(-c2ccc3snc(COC(=O)Cc4cccs4)c3c2)c1=O [Example 451, 2,4(1H,3H)-Pyrimidinedione, 3-[3-(hydroxymethyl)-1,2-benzisothiazol-5-yl]-1-methyl-6-(trifluoromethyl)-, 2-thienylacetate (ester)]
SAGPY ([1]; 0.0320 kg/ha): 4.0
SAGPY ([1]; 0.0620 kg/ha): 5.0
SAGPY ([1]; 0.1250 kg/ha): 6.0
SAGPY ([1]; 0.2500 kg/ha): 9.0
ECHORC ([2]; 0.0320 kg/ha): 0.0
ECHORC ([2]; 0.0620 kg/ha): 0.0
ECHORC ([2]; 0.1250 kg/ha): 6.0
ECHORC ([2]; 0.2500 kg/ha): 7.0
CYPIR ([3]; 0.0320 kg/ha): 5.0
CYPIR ([3]; 0.0620 kg/ha): 5.0
CYPIR ([3]; 0.1250 kg/ha): 7.0
CYPIR ([3]; 0.2500 kg/ha): 9.0
CYPSE ([4]; 0.0620 kg/ha): 0.0
CYPSE ([4]; 0.2500 kg/ha): 0.0
MOOVA ([5]; 0.0320 kg/ha): 9.0
MOOVA ([5]; 0.0620 kg/ha): 9.0
MOOVA ([5]; 0.1250 kg/ha): 9.0
MOOVA ([5]; 0.2500 kg/ha): 9.0
